In US20090018146A1, “Combination Therapy with Triterpenoid Compounds and Proteasome Inhibitors” (Research Development Corporation, priority 2005, published 2009):
Residues, ends and D or L forms follow the SMILES beside them. *: point of attachment. Cbz = O=C(OCc1ccccc1)*; CH2F = FC*

Experiments:
Hsp90 = test: Western blot of Hsp90 protein in avicin D treated Jurkat cells; assay type: cell-based, human; conditions: lactacystin 10 μM 30 minutes, then avicin D 4 hours
Procedure: (§1) Jurkat T cells (2 μg/ml=1 μM), U-937 (4 μg/ml), MJ (5 μg/ml), and HH cells (2.5 μg/ml) were treated for 0-24 hours with the indicated concentrations of avicin D. PBLs from the patients or normal blood were treated with 5 μg/ml of avicin D for 24 hours.
(§2) At the end of treatments, cells were harvested, washed with sterile ice-cold PBS and cytoplasmic extracts (CE) were prepared by lysing the cells in CE buffer containing 10 mM Hepes-Cl pH 7.5, 10 mM KCl, 0.1 mM EDTA, 0.1 mM EGTA, 0.3% NP40, and a protease inhibitor cocktail (Sigma). After centrifugation and separating the supernatant (CE proteins), the pellet was resuspended in a buffer containing 20 mM Hepes-Cl, 400 mM NaCl, 1 mM EDTA, 1 mM EGTA, and protease inhibitor cocktail (Sigma). The nuclear protein extraction proceeded for 30 min. on ice followed by centrifugation at 14,000 rpm for 5 min at 4° C. The clear supernatant containing nuclear proteins (NE) was collected, glycerol (10%) was added, and proteins stored at −80° C. until use.
SDS-PAGE and immunoblot procedures were essentially performed as described (Sambrook, 1989). […] Protein bands were detected using the ECL chemiluminescence kit from Amersham as per the manufacturer's protocol.
(§3) Quantitation of proteins (western) and transcripts (RT-PCR) was performed using the NIH 1.61 image software.

XIAP = test: Western blot of XIAP protein in Jurkat cells; assay type: cell-based, human
Procedure: as §1, §2
(§4) SDS-PAGE and immunoblot procedures were essentially performed as described (Sambrook, 1989). Briefly, cytoplasmic and nuclear proteins were resolved on SDS-PAGE, blotted on PVDF membranes (BioRad) and probed with various antibodies followed with anti-rabbit, anti-mouse antibody conjugated to horseradish peroxidase (HRP) from BioRad or HRP conjugated anti-goat antibody from Santa Cruz Biotechnology, corresponding to the primary antibody. Protein bands were detected using the ECL chemiluminescence kit from Amersham as per the manufacturer's protocol.
as §3

his-ub-Hsp70 = test: In vivo ubiquitination of Hsp70 in his-ub transfected Jurkat cells; assay type: cell-based, human; conditions: lactacystin 10 μM 30 minutes pretreatment, then avicin D 4 hours
Procedure: Jurkat T-cells were transfected with a plasmid pDG268 that expresses a fusion protein of histidine-tagged human ubiquitin and enhanced GFP. Transfection was performed using μm ax a Biosystems kit and their protocol. After 24 hours of transfection, cells were harvested, resuspended at a density of 10^6 cells/ml before treatment with lactacystin or avicin D.
Jurkat T cells transfected with the his-ub plasmid construct were treated with lactacystin (10 μM) or with avicin D (1 μM) for 4 hours. Cells were harvested and CE prepared as described above. […] The affinity purified histidine-tagged proteins were separated on SDS-PAGE and analyzed on western blots for ub-Hsp70 proteins.

Hsp70 = test: Western blot of Hsp70 protein in avicin D treated Jurkat cells; assay type: cell-based, human
Procedure: as §1, §2, §4, §3

20S activity = conditions: general statement on proteasome inhibitors; cited from earlier work
S. pombe = test: Effects of avicin G on the growth of S. pombe wild type and mutants; assay type: cell-based, Schizosaccharomyces pombe; conditions: for sensitivity to avicin G relative to wild-type: 26° C.
Procedure: FIGS. 10A and 10B: Effects of Avicin G on the Growth of S. pombe Mutants. Wild type, mts2-1 (mts2), mts3-1 (mts3), and nuc2-663 cells were spread on YEAU plates. Avicin G (25 jug) was then spotted onto the respective cell lawns and the plates were incubated at 26° C. for 5 days. The relative avicin G sensitivity of each strain, based on measurements of areas of avicin G-induced growth inhibition, was then determined, with wild-type cells being normalized to a value of 1 (FIG. 10A).
(§5) Standard yeast culture media and genetic methods were used (Alfa et al., 1993; Rose et al., 1990). S. pombe cultures were grown in either YEAU (0.5% yeast extract, 3% dextrose, 75 […]) or synthetic minimal medium (EMM) with appropriate supplements.

S. pombe cells = test: Detection of ubiquitinated proteins in S. pombe; assay type: cell-based, Schizosaccharomyces pombe; conditions: wild type S. pombe, 20 μg/ml avicin G, after 90 minutes (1.5 hours), immunoblot
Procedure: as §5
S. pombe cultures were lysed with glass beads in PEM buffer (100 mM PIPES, 1 mM EGTA, 1 mM MgSO4, pH 6.9) containing 4 mM benzamide, 10 μM E64, 50 μM leupeptin, 1 μM pepstatin, 1 mM phenylmethanesulfonyl fluoride, and 2 μg/ml aprotinin essentially as described in (Yen et al., 2003). Equal amounts of protein were resolved by SDS-PAGE and subsequent immunoblotting using anti-ubiquitin mouse monoclonal antibody (Stressgen Biotechnologies).

CC(=O)N[C@@H](CSC(=O)[C@]1([C@@H](O)C(C)C)NC(=O)[C@H](C)[C@@H]1O)C(=O)O [lactacystin, reference compound]
effect of lactacystin pretreatment on the avicin-induced decrease in Hsp90 protein (Hsp90): totally reversed | effect of lactacystin on the avicin induced XIAP decrease (XIAP; lactacystin 30 minutes prior to avicin D 4 hours): blocked | effect of lactacystin on the avicin-induced decrease of his-ub-Hsp70 (his-ub-Hsp70): sensitive to lactacystin | effect of lactacystin pretreatment on the avicin-induced decrease in Hsp70 protein (Hsp70; lactacystin 10 μM 30 minutes, then avicin D 4 hours): totally reversed

CC(C)C[C@H](NC(=O)[C@H](Cc1ccccc1)NC(=O)c1cnccn1)B(O)O [PS341]
suppression of 20S activity (20S activity): suppress 20S activity completely

COC(=O)C[C@H](NC(=O)[C@H](C)NC(=O)[C@@H](NC(=O)OCc1ccccc1)C(C)C)C(=O)CF [zVAD-fmk, reference compound] (Cbz-Val-Ala-Asp(OMe)-CH2F)
block of avicin-induced XIAP degradation (XIAP; zVAD-FMK 50 μM prior to avicin D 4 hours): −22% | effect of caspase inhibition on the avicin-induced degradation of Hsp70 (Hsp70; zVAD-FMK 50 μM 30 minutes prior to avicin D 1 μM 4 hours): no significant effect

C=C[C@](C)(O)CC/C=C(\C)C(=O)O[C@H]1[C@H](O)[C@@H](O)[C@H](O[C@@](C)(C=C)CC/C=C(\CO)C(=O)O[C@H]2C[C@]3(C(=O)O[C@@H]4O[C@H](CO)[C@@H](O)[C@H](O)[C@H]4O[C@@H]4O[C@@H](C)[C@H](O[C@@H]5O[C@@H](CO)[C@H](O)[C@H]5O)[C@@H](O[C@@H]5O[C@H](CO)[C@@H](O)[C@H](O)[C@H]5O)[C@H]4O)[C@H](O)C[C@]4(C)C(=CC[C@@H]5[C@@]6(C)CC[C@H](O[C@@H]7O[C@H](CO[C@@H]8O[C@H](C)[C@H](O)[C@H](O)[C@H]8O[C@@H]8OC[C@@H](O)[C@H](O)[C@H]8O)[C@@H](O)[C@H](O)[C@H]7NC(C)=O)C(C)(C)[C@@H]6CC[C@]54C)[C@@H]3CC2(C)C)O[C@@H]1C [avicin G]
sensitivity to avicin G relative to wild-type (S. pombe; mts2-1 26S proteasome mutant, 25 μg spotted, 5 days): only slightly increased | sensitivity to avicin G relative to wild-type (S. pombe; mts3-1 26S proteasome mutant, 25 μg spotted, 5 days): only slightly increased | sensitivity to avicin G relative to wild-type (S. pombe; nuc2-663 APC mutant): markedly resistant | growth on YEAU containing 16 μg/ml avicin G (S. pombe; nuc2-663 cells, 5 days at 26° C.): grew | levels of ubiquitinated proteins (S. pombe cells): increase in the levels of ubiquitinated proteins
